For the first experiment, the system named is P30-OHKUBO. The experiment is described as follows: selective drug sensitivity score (sDSS, relative to normal bone marrow) (sDSS (score)); higher = more potent and effective on the cell line relative to normal bone marrow cells. As to conditions: 72 h.
`CC(C)Oc1ccc(-c2nn([C@@H](C)c3oc4ccc(F)cc4c(=O)c3-c3cccc(F)c3)c3ncnc(N)c23)cc1F` [TGR-1202] (top concentration 2500 nM): the “selective drug sensitivity score” value is 5.14.
The same measure, in the same setting: next, `CN(C(=O)c1ccc(F)cc1C(F)(F)F)C1CCN(c2nnc(-c3ccnn3C)c3ccccc23)CC1` [Taladegib] (top concentration 10000 nM): -0.02; `COc1cc(Nc2ncc(F)c(Nc3ccc4c(n3)NC(=O)C(C)(C)O4)n2)cc(OC)c1OC` [Tamatinib] (top concentration 10000 nM): 4.38; `Nc1cc(F)ccc1NC(=O)c1ccc(CNC(=O)/C=C/c2cccnc2)cc1` [Tucidinostat] (top concentration 10000 nM): 4.04.
Take `CN[C@@H]1C[C@H]2O[C@@](C)([C@@H]1OC)n1c3ccccc3c3c4c(c5c6ccccc6n2c5c31)C(=O)N[C@H]4O` [UCN-01] (top concentration 10000 nM): the “selective drug sensitivity score” value was 7.74.
The same measure, in the same setting: under `CC(C)Nc1cc(-c2c[nH]c(C(=O)N[C@H](CO)c3cccc(Cl)c3)c2)c(Cl)cn1` [Ulixertinib] (top concentration 10000 nM) stands -0.18; under `Cn1ncc(Cl)c1-c1cc(C(=O)N[C@H](CN)Cc2ccc(F)c(F)c2)oc1Cl` [Uprosertib] (top concentration 10000 nM), 6.5; under `C=CC(=O)N1CC/C(=C\c2ccc(F)c([N+](=O)[O-])c2)C(=O)/C(=C/c2ccc(F)c([N+](=O)[O-])c2)C1` [VLX1570] (top concentration 10000 nM), 1.88.
On the same count and under the same terms, next, `C[C@@H]1COC(Nc2ccc3ncnc(Nc4ccc(OCc5nccs5)c(Cl)c4)c3c2)=N1` [Varlitinib] (top concentration 10000 nM): 4.32; `CNC(=O)c1cccc(-c2ccc3c(N4CCOC[C@@H]4C)nc(N4CCOC[C@@H]4C)nc3n2)c1` [Vistusertib] (top concentration 10000 nM): 11.7.

A further experiment relates to ALL-PO. Described as above. The conditions noted are these: 72 h.
Consider `CC(C)Oc1ccc(-c2nn([C@@H](C)c3oc4ccc(F)cc4c(=O)c3-c3cccc(F)c3)c3ncnc(N)c23)cc1F` [TGR-1202] (top concentration 2500 nM), for which the “selective drug sensitivity score” value was found to be 3.84.
The same measure, in the same setting: under `CN(C(=O)c1ccc(F)cc1C(F)(F)F)C1CCN(c2nnc(-c3ccnn3C)c3ccccc23)CC1` [Taladegib] (top concentration 10000 nM) stands -0.52; under `COc1cc(Nc2ncc(F)c(Nc3ccc4c(n3)NC(=O)C(C)(C)O4)n2)cc(OC)c1OC` [Tamatinib] (top concentration 10000 nM), 9.98; under `Nc1cc(F)ccc1NC(=O)c1ccc(CNC(=O)/C=C/c2cccnc2)cc1` [Tucidinostat] (top concentration 10000 nM), 2.94.
As to `CN[C@@H]1C[C@H]2O[C@@](C)([C@@H]1OC)n1c3ccccc3c3c4c(c5c6ccccc6n2c5c31)C(=O)N[C@H]4O` [UCN-01] (top concentration 10000 nM), the “selective drug sensitivity score” value stood at 8.64.
Still for that read-out and setting: under `CC(C)Nc1cc(-c2c[nH]c(C(=O)N[C@H](CO)c3cccc(Cl)c3)c2)c(Cl)cn1` [Ulixertinib] (top concentration 10000 nM) stands 6.72; under `Cn1ncc(Cl)c1-c1cc(C(=O)N[C@H](CN)Cc2ccc(F)c(F)c2)oc1Cl` [Uprosertib] (top concentration 10000 nM), 9.
Take `C=CC(=O)N1CC/C(=C\c2ccc(F)c([N+](=O)[O-])c2)C(=O)/C(=C/c2ccc(F)c([N+](=O)[O-])c2)C1` [VLX1570] (top concentration 10000 nM): the “selective drug sensitivity score” value amounted to 0.38.
Same read-out and setting: under `C[C@@H]1COC(Nc2ccc3ncnc(Nc4ccc(OCc5nccs5)c(Cl)c4)c3c2)=N1` [Varlitinib] (top concentration 10000 nM) stands 5.12; under `CNC(=O)c1cccc(-c2ccc3c(N4CCOC[C@@H]4C)nc(N4CCOC[C@@H]4C)nc3n2)c1` [Vistusertib] (top concentration 10000 nM), 10.

In another experiment the test system is NALM-6. The description is as above. The conditions noted are these: 72 h.
In the case of `CC(C)Oc1ccc(-c2nn([C@@H](C)c3oc4ccc(F)cc4c(=O)c3-c3cccc(F)c3)c3ncnc(N)c23)cc1F` [TGR-1202] (top concentration 2500 nM), the “selective drug sensitivity score” value is -1.16.
With `CN(C(=O)c1ccc(F)cc1C(F)(F)F)C1CCN(c2nnc(-c3ccnn3C)c3ccccc23)CC1` [Taladegib] (top concentration 10000 nM), the “selective drug sensitivity score” value turned out to be 2.68.
For `COc1cc(Nc2ncc(F)c(Nc3ccc4c(n3)NC(=O)C(C)(C)O4)n2)cc(OC)c1OC` [Tamatinib] (top concentration 10000 nM), the “selective drug sensitivity score” value was -5.42.
On the same count and under the same terms, next, `Nc1cc(F)ccc1NC(=O)c1ccc(CNC(=O)/C=C/c2cccnc2)cc1` [Tucidinostat] (top concentration 10000 nM): -0.36; `CN[C@@H]1C[C@H]2O[C@@](C)([C@@H]1OC)n1c3ccccc3c3c4c(c5c6ccccc6n2c5c31)C(=O)N[C@H]4O` [UCN-01] (top concentration 10000 nM): 4.94.
Consider `CC(C)Nc1cc(-c2c[nH]c(C(=O)N[C@H](CO)c3cccc(Cl)c3)c2)c(Cl)cn1` [Ulixertinib] (top concentration 10000 nM), for which the “selective drug sensitivity score” value stood at 0.12.
The same measure, in the same setting: under `Cn1ncc(Cl)c1-c1cc(C(=O)N[C@H](CN)Cc2ccc(F)c(F)c2)oc1Cl` [Uprosertib] (top concentration 10000 nM) stands 2.9.
The same measure, in the same setting: under `C=CC(=O)N1CC/C(=C\c2ccc(F)c([N+](=O)[O-])c2)C(=O)/C(=C/c2ccc(F)c([N+](=O)[O-])c2)C1` [VLX1570] (top concentration 10000 nM) stands 4.08; under `C[C@@H]1COC(Nc2ccc3ncnc(Nc4ccc(OCc5nccs5)c(Cl)c4)c3c2)=N1` [Varlitinib] (top concentration 10000 nM), -0.18; under `CNC(=O)c1cccc(-c2ccc3c(N4CCOC[C@@H]4C)nc(N4CCOC[C@@H]4C)nc3n2)c1` [Vistusertib] (top concentration 10000 nM), 3.92.

The subject of the next experiment is 380. The description is as above. As to conditions: 72 h.
Consider `CC(C)Oc1ccc(-c2nn([C@@H](C)c3oc4ccc(F)cc4c(=O)c3-c3cccc(F)c3)c3ncnc(N)c23)cc1F` [TGR-1202] (top concentration 2500 nM), for which the “selective drug sensitivity score” value is -2.56.
Take `CN(C(=O)c1ccc(F)cc1C(F)(F)F)C1CCN(c2nnc(-c3ccnn3C)c3ccccc23)CC1` [Taladegib] (top concentration 10000 nM): the “selective drug sensitivity score” value stood at 4.08.
Still for that read-out and setting: next, `COc1cc(Nc2ncc(F)c(Nc3ccc4c(n3)NC(=O)C(C)(C)O4)n2)cc(OC)c1OC` [Tamatinib] (top concentration 10000 nM): -5.42.
On the same count and under the same terms, under `Nc1cc(F)ccc1NC(=O)c1ccc(CNC(=O)/C=C/c2cccnc2)cc1` [Tucidinostat] (top concentration 10000 nM) stands 12.5.
Still for that read-out and setting: under `CN[C@@H]1C[C@H]2O[C@@](C)([C@@H]1OC)n1c3ccccc3c3c4c(c5c6ccccc6n2c5c31)C(=O)N[C@H]4O` [UCN-01] (top concentration 10000 nM) stands 13.5; under `CC(C)Nc1cc(-c2c[nH]c(C(=O)N[C@H](CO)c3cccc(Cl)c3)c2)c(Cl)cn1` [Ulixertinib] (top concentration 10000 nM), -4.38.
In the case of `Cn1ncc(Cl)c1-c1cc(C(=O)N[C@H](CN)Cc2ccc(F)c(F)c2)oc1Cl` [Uprosertib] (top concentration 10000 nM), the “selective drug sensitivity score” value is 0.6.
On to `C=CC(=O)N1CC/C(=C\c2ccc(F)c([N+](=O)[O-])c2)C(=O)/C(=C/c2ccc(F)c([N+](=O)[O-])c2)C1` [VLX1570] (top concentration 10000 nM), for which the “selective drug sensitivity score” value was found to be 6.88.
The same measure, in the same setting: under `C[C@@H]1COC(Nc2ccc3ncnc(Nc4ccc(OCc5nccs5)c(Cl)c4)c3c2)=N1` [Varlitinib] (top concentration 10000 nM) stands 18.5; under `CNC(=O)c1cccc(-c2ccc3c(N4CCOC[C@@H]4C)nc(N4CCOC[C@@H]4C)nc3n2)c1` [Vistusertib] (top concentration 10000 nM), 17.1.

For another experiment, the system named is COG-LL-355h. Described as above. As to conditions: 72 h.
Turning to `CC(C)Oc1ccc(-c2nn([C@@H](C)c3oc4ccc(F)cc4c(=O)c3-c3cccc(F)c3)c3ncnc(N)c23)cc1F` [TGR-1202] (top concentration 2500 nM), the “selective drug sensitivity score” value stood at 5.14.
Still for that read-out and setting: under `CN(C(=O)c1ccc(F)cc1C(F)(F)F)C1CCN(c2nnc(-c3ccnn3C)c3ccccc23)CC1` [Taladegib] (top concentration 10000 nM) stands 1.48; under `COc1cc(Nc2ncc(F)c(Nc3ccc4c(n3)NC(=O)C(C)(C)O4)n2)cc(OC)c1OC` [Tamatinib] (top concentration 10000 nM), -1.52.
Take `Nc1cc(F)ccc1NC(=O)c1ccc(CNC(=O)/C=C/c2cccnc2)cc1` [Tucidinostat] (top concentration 10000 nM): the “selective drug sensitivity score” value turned out to be 0.64.
With `CN[C@@H]1C[C@H]2O[C@@](C)([C@@H]1OC)n1c3ccccc3c3c4c(c5c6ccccc6n2c5c31)C(=O)N[C@H]4O` [UCN-01] (top concentration 10000 nM), the “selective drug sensitivity score” value was 4.34.
Still for that read-out and setting: next, `CC(C)Nc1cc(-c2c[nH]c(C(=O)N[C@H](CO)c3cccc(Cl)c3)c2)c(Cl)cn1` [Ulixertinib] (top concentration 10000 nM): 3.82; `Cn1ncc(Cl)c1-c1cc(C(=O)N[C@H](CN)Cc2ccc(F)c(F)c2)oc1Cl` [Uprosertib] (top concentration 10000 nM): 6.8; `C=CC(=O)N1CC/C(=C\c2ccc(F)c([N+](=O)[O-])c2)C(=O)/C(=C/c2ccc(F)c([N+](=O)[O-])c2)C1` [VLX1570] (top concentration 10000 nM): 6.08.
On the same count and under the same terms, under `C[C@@H]1COC(Nc2ccc3ncnc(Nc4ccc(OCc5nccs5)c(Cl)c4)c3c2)=N1` [Varlitinib] (top concentration 10000 nM) stands 0.92; under `CNC(=O)c1cccc(-c2ccc3c(N4CCOC[C@@H]4C)nc(N4CCOC[C@@H]4C)nc3n2)c1` [Vistusertib] (top concentration 10000 nM), 6.12.

(Values after the supplement of paper PMC8967900.)
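Further: ALL cell lines in 384-well plates, five doses spanning 10,000-fold, each plate scaled between vehicle and 100 µmol/L benzalkonium chloride controls, sDSS an adapted area-under-curve metric.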
